Entries after “also recorded” stand apart in the source; their conditions may differ.
Experiments:
[1] = system: native bovine MBP protein; experiment: ELISA cross reaction of sera with native MBP protein; type: in vivo; parameters: key to Cross reaction with native MBP / Ab Cross reaction with native MBP: −: negative; +/−: very weak; +: weak; ++: moderate; +++: strong; conditions: for Cross reaction with native MBP: Table 2, peptide analogues conjugated to reduced mannan-KLH; for Ab Cross reaction with native MBP: Table 3, peptide analogues emulsified in complete Freund's adjuvant; for cross reaction of sera with native MBP protein (in words): peptide conjugated to reduced mannan, 1/200 and 1/1,600 sera dilution
Method: Blood was collected and sera isolated from mice prior to and 2 weeks after immunization. MBP83-99 peptides conjugated to BSA were coated onto polyvinyl chloride (PVC) microtiter plates at 10 μg/ml or with 2.5 μg/ml native MBP bovine protein in 0.2 M NaHCO3 buffer, pH 9.6, overnight at 4′C and non-specific binding was blocked with 2% BSA for 1.0 hour at room temperature. After washing (0.05% Tween 20/PBS), serial dilutions of sera were added and incubated for a further 2.0 hours at room temperature. The plates were washed and bound antibody was detected using HRP-conjugated sheep anti-mouse antibody (1:1000 in PBS) (Amersham, UK) and developed using 2,2″-azino-di(3-ethylbenzthiazoline) sulphonate (ABTS) (Sigma, UK). Absorption at 405 nm was recorded using an ELISA microplate reader.

[2] = system: IFN-γ production induced by the native MBP83-99 peptide; experiment: In vitro IFN-γ antagonism ELISpot; type: cell-based, SJL/J mice; parameters: key to Antagonism: −: negative; +/−: very weak; +: weak; ++: moderate; +++: strong; conditions: for Antagonism: Table 3, complete Freund's adjuvant
Method: Mice were immunized with native MBP83-99 peptide emulsified in CFA, and spleen cells were isolated 25 days later. The ability of cyclic mutant MBP83-99 peptide analogues to antagonize IFN-γ production was assessed by ELISpot analysis. The native MBP83-99 peptide was added together with cyclic mutated MBP83-99 analogues, and % IFN-γ inhibition is shown.
ELISpot assays are an ex vivo 18 h assay that measures IFN-γ secretion by T cells. […] The sensitivity of the assay is higher than limiting dilution analysis, FACscan analysis, or ELISA methods and can reliably detect precursor frequencies of antigen specific effectors of 1 in every 0.5 million cells. It is therefore an appropriate method to detect antigen specific cells. Here, we measured IFN-γ production generated by the native MBP83-99 peptide and assessed the % inhibition (antagonize) of IFN-γ produced in the presence of mutant peptide analogues.
Cyclic head-to-tail MBP83-99 single and double mutant analogues were tested for their ability to inhibit IFN-γ responses induced by the native agonist MBP83-99 peptide. Mice were immunized with the native agonist MBP83-99 peptide emulsified in complete Freund's adjuvant (CFA). Spleen cells were isolated 25 days later, and the ability of cyclic peptides to inhibit (antagonize) IFN-γ production was assessed in in vitro antagonism ELISpot assays (FIG. 8). The results are shown as % IFN-γ inhibition of each cyclic mutant peptide analogue, in comparison to the native MBP83-99 peptide alone. All cyclic peptide analogues inhibited IFN-γ production between 30% and 90%. […] However, the single mutant analogue cyclo(83-99)[A^91]MBP83-99 was the most efficient in inhibiting IFN-γ production induced by the native MBP83-99 peptide, up to 92%. On the basis of the ability of cyclo(83-99)[A^91]MBP83-99 peptide to inhibit (antagonize) IFN-γ production by T cells, we chose to examine its in vivo efficacy in SJL/J mice after emulsification in CFA or conjugation to reduced mannan.

| Molecule | Cross reaction with native MBP [1] | Ab Cross reaction with native MBP [1] | cross reaction of sera with native MBP protein (in words) [1] | Antagonism [2] | cross reaction of sera with native MBP protein (in words) ([1]; listed as [A^91, R^96]MBP83-99) | % IFN-γ inhibition ([2]; spleen cells of mice immunized with native MBP83-99 in CFA, 25 days, cyclic analogue added together with native MBP83-99) |
| --- | --- | --- | --- | --- | --- | --- |
| E N P V V H F F E N I V T P R T P (ENPVVHFFENIVTPRTP) [[E^91]MBP83-99] | + | − | reacted moderately; also recorded: cross reacted weakly | ++ |  |  |
| CC[C@H](C)[C@@H]1NC(=O)[C@H](CC(N)=O)NC(=O)[C@H](CCCCN)NC(=O)[C@H](Cc2ccccc2)NC(=O)[C@H](Cc2ccccc2)NC(=O)[C@H](Cc2c[nH]cn2)NC(=O)[C@H](C(C)C)NC(=O)[C@H](C(C)C)NC(=O)[C@@H]2CCCN2C(=O)[C@H](CC(N)=O)NC(=O)[C@H](CCC(=O)O)NC(=O)[C@@H]2CCCN2C(=O)[C@H]([C@@H](C)O)NC(=O)[C@H](CCCNC(=N)N)NC(=O)[C@@H]2CCCN2C(=O)[C@H]([C@@H](C)O)NC(=O)[C@H](C(C)C)NC1=O [cyclo(83-99)MBP83-99, cyclo(83-99)E N P V V H F F K N I V T P R T P] |  | − | highly cross reacted |  |  |  |
| E N P V V H F F Y N I V T P R T P (ENPVVHFFYNIVTPRTP) [[Y^91]MBP83-99] | − | − | did not cross react | ++ |  |  |
| E N P V V H F F R N I V T A R T P (ENPVVHFFRNIVTARTP) [[R^91, A^96]MBP83-99] | +++ | − | cross reactive | ++ | highly cross reacted |  |
| cyclo(83-99)E N P V V H F F A N I V T P R T P (ENPVVHFFANIVTPRTP; cyclised or stapled) [cyclo(83-99)[A^91]MBP83-99] | + | − | reacted moderately | ++ |  | up to 92% |
| E N P V V H F F K N I V T P R T P (ENPVVHFFKNIVTPRTP) [MBP83-99, reference compound] | +++ | − | highly cross reacted; also recorded: cross reactive |  |  |  |
| E N P V V H F F F N I V T P R T P (ENPVVHFFFNIVTPRTP) [[F^91]MBP83-99] | − | − | did not react | ++ |  |  |
| E N P V V H F F A N I V T P R T P (ENPVVHFFANIVTPRTP) [[A^91]MBP83-99] | + | ++ | reacted moderately; also recorded: cross reacted weakly | ++ |  |  |
